Source: ChEMBL document CHEMBL4699517 (Bioorg Med Chem Lett, 2020)
Active and inactive are the calls of the source. The calls are words filed in the database; no cut-off is given here.

Target: Phosphatidylinositol 4,5-bisphosphate 3-kinase catalytic subunit gamma isoform (Homo sapiens) (UniProt P48736)
Test: Inhibition of PI3Kgamma in human Raji cells assessed as inhibition of cell viability at 100 nM after 72 hrs by CellTiter-Glo luminescence assay
Format: cell-based

Chain of Phosphatidylinositol 4,5-bisphosphate 3-kinase catalytic subunit gamma isoform (Homo sapiens) (P48736 whole entry, looked up, canonical isoform): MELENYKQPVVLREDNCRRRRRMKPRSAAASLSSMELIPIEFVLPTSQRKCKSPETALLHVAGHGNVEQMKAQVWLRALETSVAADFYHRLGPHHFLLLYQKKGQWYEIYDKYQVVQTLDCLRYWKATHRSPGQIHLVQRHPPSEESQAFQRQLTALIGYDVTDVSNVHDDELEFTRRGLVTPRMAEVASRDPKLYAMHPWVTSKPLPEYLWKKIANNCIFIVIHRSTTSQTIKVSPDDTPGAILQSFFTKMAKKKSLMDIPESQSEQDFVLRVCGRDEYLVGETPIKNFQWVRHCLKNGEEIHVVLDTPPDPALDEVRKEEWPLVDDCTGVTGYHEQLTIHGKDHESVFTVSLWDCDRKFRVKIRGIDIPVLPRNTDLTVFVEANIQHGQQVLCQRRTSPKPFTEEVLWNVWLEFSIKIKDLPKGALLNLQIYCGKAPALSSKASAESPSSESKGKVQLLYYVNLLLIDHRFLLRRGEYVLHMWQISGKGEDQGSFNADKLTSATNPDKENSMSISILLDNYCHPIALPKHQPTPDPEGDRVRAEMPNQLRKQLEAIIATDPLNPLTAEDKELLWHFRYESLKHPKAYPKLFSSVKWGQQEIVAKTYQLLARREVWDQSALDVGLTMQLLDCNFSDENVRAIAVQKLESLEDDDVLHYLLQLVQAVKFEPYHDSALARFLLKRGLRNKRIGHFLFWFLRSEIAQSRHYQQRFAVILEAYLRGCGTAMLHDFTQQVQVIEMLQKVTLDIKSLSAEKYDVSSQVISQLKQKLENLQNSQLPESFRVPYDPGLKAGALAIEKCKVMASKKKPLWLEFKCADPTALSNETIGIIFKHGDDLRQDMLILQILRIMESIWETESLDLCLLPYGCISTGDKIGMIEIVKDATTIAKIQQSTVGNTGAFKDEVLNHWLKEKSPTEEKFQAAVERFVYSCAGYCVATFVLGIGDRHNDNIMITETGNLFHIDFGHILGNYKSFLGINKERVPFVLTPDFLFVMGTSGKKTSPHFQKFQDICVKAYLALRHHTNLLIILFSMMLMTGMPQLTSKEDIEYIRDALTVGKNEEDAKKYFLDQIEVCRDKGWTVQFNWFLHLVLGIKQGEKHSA

Compound	inhibition
CC[C@H](C)[C@H](NC(=O)OC(C)(C)C)C(=O)OC1=C(C)[C@@H]2C[C@H]3OC(=O)[C@H](OC(=O)C=C(C)C)[C@H]4[C@]5(C(=O)OC)OC[C@]34[C@H]([C@@H](O)[C@@H]5O)[C@@]2(C)CC1=O	inactive
COC(=O)[C@@]12OC[C@]34[C@H]([C@@H](O)[C@@H]1O)[C@@]1(C)CC(=O)C(OC(=O)C[C@@H](N)C(F)(F)F)=C(C)[C@@H]1C[C@H]3OC(=O)[C@H](OC(=O)C=C(C)C)[C@@H]24	inactive
COC(=O)[C@@]12OC[C@]34[C@H]([C@@H](O)[C@@H]1O)[C@@]1(C)CC(=O)C(OCC(=O)C(C)(C)C)=C(C)[C@@H]1C[C@H]3OC(=O)[C@H](OC(=O)C=C(C)C)[C@@H]24	inactive
COC(=O)[C@@]12OC[C@]34[C@H]([C@@H](O)[C@@H]1O)[C@@]1(C)CC(=O)C(OC(=O)C[C@@H](N)C5CC5)=C(C)[C@@H]1C[C@H]3OC(=O)[C@H](OC(=O)C=C(C)C)[C@@H]24	inactive
COC(=O)[C@@]12OC[C@]34[C@H]([C@@H](O)[C@@H]1O)[C@@]1(C)CC(=O)C(OCC(N)=O)=C(C)[C@@H]1C[C@H]3OC(=O)[C@H](OC(=O)C=C(C)C)[C@@H]24	inactive
COC(=O)[C@@]12OC[C@]34[C@H]([C@@H](O)[C@@H]1O)[C@@]1(C)CC(=O)C(OCC(=O)NC(Cc5ccccc5)C(=O)OC(C)(C)C)=C(C)[C@@H]1C[C@H]3OC(=O)[C@H](OC(=O)C=C(C)C)[C@@H]24 (some centres not stated)	inactive
COC(=O)[C@@]12OC[C@]34[C@H]([C@@H](O)[C@@H]1O)[C@@]1(C)CC(=O)C(OC(=O)[C@@H](N)C(C)C)=C(C)[C@@H]1C[C@H]3OC(=O)[C@H](OC(=O)C=C(C)C)[C@@H]24	Active
COC(=O)[C@@]12OC[C@]34[C@H]([C@@H](O)[C@@H]1O)[C@@]1(C)CC(=O)C(OC(=O)[C@H](C)N)=C(C)[C@@H]1C[C@H]3OC(=O)[C@H](OC(=O)C=C(C)C)[C@@H]24	Active
COC(=O)[C@@]12OC[C@]34[C@H]([C@@H](O)[C@@H]1O)[C@@]1(C)CC(=O)C(OC(=O)[C@H](C)NC(=O)OC(C)(C)C)=C(C)[C@@H]1C[C@H]3OC(=O)[C@H](OC(=O)C=C(C)C)[C@@H]24	Active
CC[C@H](C)[C@H](N)C(=O)OC1=C(C)[C@@H]2C[C@H]3OC(=O)[C@H](OC(=O)C=C(C)C)[C@H]4[C@]5(C(=O)OC)OC[C@]34[C@H]([C@@H](O)[C@@H]5O)[C@@]2(C)CC1=O	Active
COC(=O)[C@@]12OC[C@]34[C@H]([C@@H](O)[C@@H]1O)[C@@]1(C)CC(=O)C(OC(=O)C[C@H](C)NC(=O)OC(C)(C)C)=C(C)[C@@H]1C[C@H]3OC(=O)[C@H](OC(=O)C=C(C)C)[C@@H]24	inactive
COC(=O)[C@@]12OC[C@]34[C@H]([C@@H](O)[C@@H]1O)[C@@]1(C)CC(=O)C(OC(=O)CN)=C(C)[C@@H]1C[C@H]3OC(=O)[C@H](OC(=O)C=C(C)C)[C@@H]24	Active
COC(=O)[C@@]12OC[C@]34[C@H]([C@@H](O)[C@@H]1O)[C@@]1(C)CC(=O)C(OC(=O)[C@H](CC(C)C)NC(=O)OC(C)(C)C)=C(C)[C@@H]1C[C@H]3OC(=O)[C@H](OC(=O)C=C(C)C)[C@@H]24	inactive
COC(=O)[C@@]12OC[C@]34[C@H]([C@@H](O)[C@@H]1O)[C@@]1(C)CC(=O)C(OCC(=O)NCCC(=O)O)=C(C)[C@@H]1C[C@H]3OC(=O)[C@H](OC(=O)C=C(C)C)[C@@H]24	inactive
COC(=O)[C@@]12OC[C@]34[C@H]([C@@H](O)[C@@H]1O)[C@@]1(C)CC(=O)C(OCC(=O)NC(C)(C)C)=C(C)[C@@H]1C[C@H]3OC(=O)[C@H](OC(=O)C=C(C)C)[C@@H]24	inactive
COC(=O)[C@@]12OC[C@]34[C@H]([C@@H](O)[C@@H]1O)[C@@]1(C)CC(=O)C(OC(=O)[C@@H](NC(=O)OC(C)(C)C)C(C)C)=C(C)[C@@H]1C[C@H]3OC(=O)[C@H](OC(=O)C=C(C)C)[C@@H]24	inactive
COC(=O)[C@@]12OC[C@]34[C@H]([C@@H](O)[C@@H]1O)[C@@]1(C)CC(=O)C(OCC(=O)C5CC5)=C(C)[C@@H]1C[C@H]3OC(=O)[C@H](OC(=O)C=C(C)C)[C@@H]24	inactive
